# Measured values taken from patent US11964938B2, “3-phenyl-4-hexynoic acid derivatives as GPR40 agonists” (CELON PHARMA S.A., priority 2018, dated 2024).
# Tests used:
# human GPR40 receptor = biological target: T1, human GPR40 receptor (Homo sapiens, UniProt O14842); test: Analysis of receptor activation - calcium ions concentration measurement (aequorin luminescence); format: cell-based; details: enhancement or decrease of activity in relation to reference TAK-875, from EC50 values
# T1 construct: host or cells: CHO-K1 (co-expressing aequorin)
# T1 sequence (O14842 whole entry): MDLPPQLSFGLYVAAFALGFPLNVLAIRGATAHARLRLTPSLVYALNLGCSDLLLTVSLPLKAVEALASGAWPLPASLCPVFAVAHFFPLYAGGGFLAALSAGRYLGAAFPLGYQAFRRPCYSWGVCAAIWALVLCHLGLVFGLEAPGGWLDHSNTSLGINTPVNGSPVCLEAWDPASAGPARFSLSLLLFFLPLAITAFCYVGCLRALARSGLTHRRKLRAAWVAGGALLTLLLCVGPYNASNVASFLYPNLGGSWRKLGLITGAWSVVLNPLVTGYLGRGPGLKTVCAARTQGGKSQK
# Excerpt: Experiment B1: Analysis of Receptor Activation—Calcium Ions Concentration Measurement.
# As a result of the measurement, luminescence change in the time curve were obtained, the integration of which allowed to calculate the relative amount of calcium ions released to cytosol. […] Curves plotted from obtained results allowed to determine EC50 values.
# [1] = system: Wistar HAN Crl:WI (HAN) rats; test: Glucose tolerance test in vivo on rats; parameters: species or system rat; details: 10 mg/kg oral single dose, blood; for AUC for glucose (0-540 min.): i.p. glucose bolus at t=0 and 6 h; for AUC for insulin (0-180 min.): i.p. glucose bolus
# Method: Experiment B3: Glucose Tolerance Test In Vivo on Rats.
# To evaluate glucose lowering effect of the compounds in in vivo study, glucose tolerance test (GTT) was performed. The study was performed on male outbred Wistar HAN Crl:WI (HAN) rats from Charles River, weight about 250-300 g, 8-10 weeks old. Rats were starved for 12 hours (with free access to water).
# At time point t=0 animals were given orally a single dose of a compound (by a gastric tube) and immediately (t=0) and after 6 hour (t=6 h) intraperitoneal (i.p.) glucose bolus ([…]). At time points t=0 (just before oral administration of the compounds and intraperitoneal glucose administration), 0.25, 0.5, 1, 2, 2.5, 3, 6, 6.25, 7, 8, and 9 h blood samples from tail vein were collected from each animal for glucose level determination using Accu-chek glucometer (Roche Diagnostics) and additionally at t=0.25, 0.5, 1, 2, 2.5, and 3 h blood samples from tail vein were collected for insulin level measurement using ELISA test (Mercodia).
# Tested compound were prepared in 5% DMSO/40% PEG300/55% PBS vehicle and administered at the dose of 10 mg/kg body weight in a volume of 0.5 ml/100 g body weight. After 4 hours after tested compound administration animals were given standard diet to the cages. Decrease of AUC value for glucose level in blood was calculated and the results for selected compounds of the invention are presented in Table 5. Analysis was performed using GraphPad prism software.
# [2] = system: MIN6 (mouse insulinoma) cells; test: Glucose-dependent insulin release in mouse insulinoma cells (MIN6); format: cell-based; details: multiplicity of insulin efflux increase in relation to control; 10 uM compound, 20 mM glucose, 1 hour
# Method: Experiment B2: Glucose-Dependent Insulin Release in Mouse Insulinoma Cells (MIN6).
# MIN6 (mouse insulinoma) cells were seeded on a plate covered with PDL (poly-D-lysine) at 5×10^5/well and cultured for 48 hours. […] Tested compounds, after dilution to the concentration of 10-40 uM in KRBH buffer with the addition of 20 mM glucose, were added to the cells and incubated for 1 hour to induce insulin release. Negative control was KRBH buffer with the addition of 2 mM glucose. Concentration of released insulin was determined using ELISA test (Mercodia).
# Table 4 present MIN6Insulin @10 uM values for representative compounds of the invention. MIN6Insulin @10 uM value is a multiplicity of insulin efflux increase in relation to control experiment, following addition of 10 uM of tested compound.
# [3] = system: diabetes STZ-treated mice; test: Von Frey test on diabetes STZ-treated mice (tactile allodynia); format: in vivo, mouse; details: 60 minutes after administration, mean of group
# Method: Experiment B5: Von Frey Test on Diabetes STZ-Treated Mice.
# Tactile allodynia was assessed by electronic von Frey apparatus (Bioseb) equipped with a flexible filament. Reaction to stimuli was assessed using growing applied pressure (from 0 to 10 g) on a plantar side of the hind foot of mice. Pregabalin was a control, as reference healthy mice with preserved normal response to the stimuli were used. In the day of the experiment, mice were placed separately in cages with a wire mesh bottom for 1 h for habituation to experimental conditions. After habituation period, each mouse was treated 3 times alternately, with 30 s intervals between each measurement, to obtain starting values (before administration of the compound) of pain sensitivity. […] The results are presented in Table 7 as mean value for all mice in a given group (n=7-10).
# [4] = I phase of clinical trials; cited from earlier work
Structure (SMILES),% PTAK-875 (human GPR40 receptor),also measured
"CC#C[C@@H](CC(=O)O)c1ccc(OC/C=C/C=C/C)cc1 [Example F19, (3S)-3-{4-[(2E,4E)-hexa-2,4-dien-1-yloxy]phenyl}hex-4-ynoic acid]",A (>120% PTAK-875),
"CC#C[C@@H](CC(=O)O)c1ccc(OCC(C)=C(C)C)cc1 [Example F33, (3S)-3-{4-[(2,3-dimethylbut-2-en-1-yl)oxy]phenyl}hex-4-ynoic acid]",,AUC for glucose (0-540 min.) [1]: 19393.1; AUC for insulin (0-180 min.) [1]: 519.1; MIN6Insulin @10 uM [2]: 3.895
"CC#C[C@@H](CC(=O)O)c1ccc(OCCC)cc1 [Example F1, (3S)-3-(4-propoxyphenyl)hex-4-ynoic acid]",D (21-50% PTAK-875),
"C=CCCCOc1ccc([C@@H](C#CC)CC(=O)O)cc1 [Example F20, (3S)-3-[4-(pent-4-en-1-yloxy)phenyl]hex-4-ynoic acid]",B (81-120% PTAK-875),
"CC#C[C@@H](CC(=O)O)c1ccc(OCCCC(F)(F)F)cc1 [Example F39, (3S)-3-[4-(4,4,4-trifluorobutoxy)phenyl]hex-4-ynoic acid]",B (81-120% PTAK-875),
"CC#C[C@@H](CC(=O)O)c1ccc(OCCC(C)C)cc1 [Example F24, (3S)-3-[4-(3-methylbutoxy)phenyl]hex-4-ynoic acid]",,AUC for glucose (0-540 min.) [1]: 24289.7; AUC for insulin (0-180 min.) [1]: 329.0; melting point: 26.4 to 27.1 °C; MIN6Insulin @10 uM [2]: 2.627
"CC#CC(CC(=O)O)c1ccc(OCC(C)(C)C)cc1 (racemic) [Example F26, (3R/S)-3-[4-(2,2-dimethylpropoxy)phenyl]hex-4-ynoic acid]",E (<20% PTAK-875),
"CC#C[C@@H](CC(=O)O)c1ccc(OC(CC)CC)cc1 [Example F17, (3S)-3-[4-(pentan-3-yloxy)phenyl]hex-4-ynoic acid]",E (<20% PTAK-875),
"CC#C[C@@H](CC(=O)O)c1ccc(OCC(C)C(C)C)cc1 (mixture of isomers) [Example F37, (3S)-3-{4-[(2R/S)-2,3-dimethylbutoxy]phenyl}hex-4-ynoic acid]",A (>120% PTAK-875),
"CC#C[C@@H](CC(=O)O)c1ccc(OC/C=C(\C)CCC=C(C)C)cc1 [Example F6, (3S)-3-(4-{[(2E)-3,7-dimethylocta-2,6-dien-1-yl]oxy}phenyl)hex-4-ynoic acid]",,AUC for glucose (0-540 min.) [1]: 25184.1; AUC for insulin (0-180 min.) [1]: 492.5
"CC#C[C@@H](CC(=O)O)c1ccc(OC(C)C(C)C)cc1 (mixture of isomers) [Example F13, (3S)-3-(4-{[(2R/S)-3-methylbutan-2-yl]oxy}phenyl)hex-4-ynoic acid]",A (>120% PTAK-875),
"CC#C[C@@H](CC(=O)O)c1ccc(OCCC(C)CC)cc1 (mixture of isomers) [Example F38, (3S)-3-(4-{[(3R/S)-3-methylpentyl]oxy}phenyl)hex-4-ynoic acid]",B (81-120% PTAK-875),
"CC#C[C@@H](CC(=O)O)c1ccc(OCCCCCCC)cc1 [Example F5, (3S)-3-[4-(heptyloxy)phenyl]hex-4-ynoic acid]",A (>120% PTAK-875),
"CC#C[C@@H](CC(=O)O)c1ccc(OCCC(C)(C)C)cc1 [Example F27, (3S)-3-[4-(3,3-dimethylbutoxy)phenyl]hex-4-ynoic acid]",D (21-50% PTAK-875),
"CC#C[C@@H](CC(=O)O)c1ccc(OCC#CCC)cc1 [Example F22, (3S)-3-[4-(pent-2-yn-1-yloxy)phenyl]hex-4-ynoic acid]",C (51-80% PTAK-875),
"CC#C[C@@H](CC(=O)O)c1ccc(OCCCC)cc1 [Example F2, (3S)-3-(4-butoxyphenyl)hex-4-ynoic acid]",A (>120% PTAK-875),
"CC(C)C[C@H](CN)CC(=O)O [Pregabalin, reference compound]",,"Applied pressure causing the response, sick animal (neuropathic) after compound administration ([3]; 3 mg/kg p.o.): 2.04 g; Applied pressure causing the response, sick animal (neuropathic) after compound administration ([3]; 10 mg/kg p.o.): 2.65 g; Applied pressure causing the response, sick animal (neuropathic) after compound administration ([3]; 30 mg/kg p.o.): 4.11 g"
"CC#C[C@@H](CC(=O)O)c1ccc(OCCCCCC)cc1 [Example F4, (3S)-3-[4-(hexyloxy)phenyl]hex-4-ynoic acid]",A (>120% PTAK-875),
"CC#CC(CC(=O)O)c1ccc(OC/C=C(\C)CC/C=C(\C)CCC=C(C)C)cc1 (racemic) [Example F11, (3R/S)-3-(4-{[(2E,6E)-3,7,11-trimethyldodeca-2,6,10-trien-1-yl]oxy}-phenyl)hex-4-ynoic acid]",D (21-50% PTAK-875),
"CC#C[C@@H](CC(=O)O)c1ccc(OCC=C(C)C)cc1 [Example F28, (3S)-3-{4[(3-methylbut-2-en-1-yl)oxy]phenyl}hex-4-ynoic acid]",,AUC for glucose (0-540 min.) [1]: 28377.4; AUC for insulin (0-180 min.) [1]: 499.2; melting point: 52.1 to 53.1 °C; MIN6Insulin @10 uM [2]: 2.782
"C=C(C)CCOc1ccc([C@@H](C#CC)CC(=O)O)cc1 [Example F30, (3S)-3-{4[(3-methylbut-3-en-1-yl)oxy]phenyl}hex-4-ynoic acid]",A (>120% PTAK-875),
"C=C(C)/C=C/COc1ccc([C@@H](C#CC)CC(=O)O)cc1 [Example F34, (3S)-3-(4-{[(2E)-4-methylpenta-2,4-dien-1-yl]oxy}phenyl)hex-4-ynoic acid]",A (>120% PTAK-875),melting point: 94.7 to 95.7 °C
"CC#C[C@@H](CC(=O)O)c1ccc(OCCCCC(F)(F)F)cc1 [Example F40, (3S)-3-{4[(5,5,5-trifluoropentyl)oxy]phenyl}hex-4-ynoic acid]",B (81-120% PTAK-875),
"CC#C[C@@H](CC(=O)O)c1ccc(OC/C=C/CCC)cc1 [Example F18, (3S)-3-{4-[(2E)-hex-2-en-1-yloxy]phenyl}hex-4-ynoic acid]",A (>120% PTAK-875),
"CC#C[C@@H](CC(=O)O)c1ccc(OCc2cccc(-c3ccc(C(F)(F)F)cc3)c2)cc1 [Example R2, (3S)-3-[4-({3-[4-(trifluoromethyl)phenyl]phenyl}methoxy)phenyl]-hex-4-ynoic acid, reference compound]",,insulin plasma level [4]: enhanced insulin plasma level; MIN6Insulin @10 uM [2]: 1.567
"CC#CCCOc1ccc([C@@H](C#CC)CC(=O)O)cc1 [Example F21, (3S)-3-[4-(pent-3-yn-1-yloxy)phenyl]hex-4-ynoic acid]",C (51-80% PTAK-875),
